This passage reports inhibition and EC50 results from patent US7550485B2, “Substituted N-heterocycle derivatives and methods of their use” (Wyeth, priority 2003, dated 2009).

Structures are written as SMILES. Counter-ions that a name gives are not always drawn.

In this experiment the target is T1, hNET (Homo sapiens, UniProt P23975).
T1 construct: expressed in transfected cells
In words: Norepinephrine (NE) uptake assay in MDCK-Net6 cells stably transfected with human hNET. It counts as cell-based. The note with it: [3H]NE uptake; for inhibition at 1 µM: MDCK-Net6, 1 μM test compound; for EC50: test range 1 to 10,000 nM. The method, then: MDCK-Net6 cells, stably transfected with human hNET (Pacholczyk, T., R. D. Blakely, and S. G. Amara, Nature, 1991, 350(6316): p. 350-4) were cultured in growth medium containing high glucose DMEM (Gibco, Cat. No. 11995), 10% FBS (dialyzed, heat-inactivated, US Bio-Technologies, Lot FBD1129HI) and 500 μg/ml G418 (Gibco, Cat. No. 10131). Cells were plated at 300,000/T75 flask and cells were split twice weekly. The JAR cell line (human placental choriocarcinoma) was purchased from ATCC (Cat. No. HTB-144). The cells were cultured in growth medium containing RPMI 1640 (Gibco, Cat. No. 72400), 10% FBS (Irvine, Cat. No. 3000), 1% sodium pyruvate (Gibco, Cat. No. 1136) and 0.25% glucose. Cells were plated at 250,000 cells/T75 flask and split twice weekly. For all assays, cells were plated in Wallac 96-well sterile plates (PerkinElmer, Cat. No. 3983498).
Norepinephrine (NE) Uptake Assay
On day 1, cells were plated at 3,000 cells/well in growth medium and maintained in a cell incubator (37° C., 5% CO2). On day 2, growth medium was replaced with 200 μl of assay buffer (25 mM HEPES; 120 mM NaCl; 5 mM KCl; 2.5 mM CaCl2; 1.2 mM MgSO4; 2 mg/ml glucose (pH 7.4, 37° C.)) containing 0.2 mg/ml ascorbic acid and 10 μM pargyline. Plates containing cells with […] of assay buffer were equilibrated for 10 minutes at 37° C. prior to addition of compounds. A stock solution of desipramine was prepared in DMSO (10 mM) and delivered to triplicate wells containing cells for a final test concentration of 1 μM. Data from these wells were used to define non-specific NE uptake (minimum NE uptake). Test compounds were prepared in DMSO (10 mM) and diluted in assay buffer according to test range (1 to 10,000 nM). Twenty-five microliters of assay buffer (maximum NE uptake) or test compound were added directly to triplicate wells containing cells in 200 μl of assay buffer. The cells in assay buffer with test compounds were incubated for 20 minutes at 37° C. To initiate the NE uptake, [^3H]NE diluted in assay buffer (120 nM final assay concentration) was delivered in 25 μl aliquots to each well and the plates were incubated for 5 minutes (37° C.). The reaction was terminated by decanting the supernatant from the plate. The plates containing cells were washed twice with 200 μl assay buffer (37° C.) to remove free radioligand. The plates were then inverted, left to dry for 2 minutes, then reinverted and air-dried for an additional 10 minutes. The cells were lysed in 25 μl of 0.25 N NaOH solution (4° C.), placed on a shake table and vigorously shaken for 5 minutes. After cell lysis, 75 μl of scintillation cocktail was added to each well and the plates were sealed with film tape. The plates were returned to the shake table and vigorously shaken for a minimum of 10 minutes to ensure adequate partitioning of organic and aqueous solutions. The plates were counted in a Wallac Microbeta counter (PerkinElmer) to collect the raw cpm data.
For each experiment, a data stream of cpm values collected from the Wallac Microbeta counter was downloaded to a Microsoft Excel statistical application program. Calculations of EC50 values were made using the transformed-both-sides logistic dose response program written by Wyeth Biometrics Department. The statistical program uses mean cpm values from wells representing maximum binding or uptake (assay buffer) and mean cpm values from wells representing minimum binding or uptake ((1 μM desipramine (hNET) or 1 μM paroxetine (hSERT)). Estimation of the EC50 value was completed on a log scale and the line was fit between the maximum and minimum binding or uptake values. All graphic data representation was generated by normalizing each data point to a mean percent based on the maximum and minimum binding or uptake values. The EC50 values reported from multiple experiments were calculated by pooling the raw data from each experiment and analyzing the pooled data as one experiment.

In general, inhibition refers to the relative decrease from the control value, in per cent. Read a high inhibition as a strong effect. One may read the EC50 as the concentration giving half of the maximal effect. A higher EC50 goes with a need for much substance.

T1 sequence (P23975 whole entry): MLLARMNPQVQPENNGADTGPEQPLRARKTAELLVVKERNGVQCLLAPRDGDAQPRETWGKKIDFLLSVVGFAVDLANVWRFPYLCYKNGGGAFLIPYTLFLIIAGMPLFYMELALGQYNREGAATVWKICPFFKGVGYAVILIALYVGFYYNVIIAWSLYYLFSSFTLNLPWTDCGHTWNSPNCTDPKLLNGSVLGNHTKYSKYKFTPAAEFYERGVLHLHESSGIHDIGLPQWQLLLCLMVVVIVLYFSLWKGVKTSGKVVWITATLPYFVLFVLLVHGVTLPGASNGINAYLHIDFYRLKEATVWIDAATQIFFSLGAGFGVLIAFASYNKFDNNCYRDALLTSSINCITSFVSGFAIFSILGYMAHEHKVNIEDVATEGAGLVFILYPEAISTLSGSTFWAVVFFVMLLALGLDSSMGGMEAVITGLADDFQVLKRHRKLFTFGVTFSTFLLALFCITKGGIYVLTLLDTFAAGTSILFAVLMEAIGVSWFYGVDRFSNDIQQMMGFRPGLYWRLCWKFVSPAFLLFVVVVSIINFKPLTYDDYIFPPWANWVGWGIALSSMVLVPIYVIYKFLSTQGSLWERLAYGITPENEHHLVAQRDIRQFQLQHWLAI

`CNC1CCN(CC(c2ccc3cc(OC)ccc3c2)C2(O)CCCCC2)CC1` (stereo not shown) [Example 344, 1-{1-(6-methoxy-2-naphthyl)-2-[4-(methylamino)piperidin-1-yl]ethyl}cyclohexanol dihydrochloride] gave an inhibition at 1 µM of 52%.

On to `CN[C@@H]1CCCN(CC(c2ccc(OCc3ccccc3)c(Cl)c2)C2(O)CCCCC2)C1` (stereo partly drawn) [Example 192, 1-{1-[4-(benzyloxy)-3-chlorophenyl]-2-[(3R)-3-(methylamino)piperidin-1-yl]ethyl}cyclohexanol dihydrochloride], for which the inhibition at 1 µM stood at 88.5%. Take `COC1CCN(CC(c2ccc(OCc3ccccc3)c(Cl)c2)C2(O)CCCCC2)CC1` (stereo not shown) [Example 242, 1-[1-[4-(benzyloxy)-3-chlorophenyl]-2-(4-methoxypiperidin-1-yl)ethyl]cyclohexanol hydrochloride]: the inhibition at 1 µM is 2%.

The molecule `COc1cc(C(CN2CCC(N)CC2)C2(O)CCCCC2)ccc1OCc1ccccc1` (stereo not shown) [Example 450, 1-{2-(4-aminopiperidin-1-yl)-1-[4-(benzyloxy)-3-methoxyphenyl]ethyl}cyclohexanol dihydrochloride] returned an inhibition at 1 µM of 79%. Same read-out and setting: the figure for `CN(C)C1CCN(CC(c2cccc(C(F)(F)F)c2)C2(O)CCCCC2)CC1` (stereo not shown) [Example 321, 1-{2-[4-(dimethylamino)piperidin-1-yl]-1-[3-(trifluoromethyl)phenyl]ethyl}cyclohexanol dihydrochloride] is 66.1%; for `OC1(C(CN2CCC(N3CCCC3)CC2)c2cccc(Oc3ccccc3)c2)CCCCC1` (stereo not shown) [Example 316, 1-[1-(3-phenoxyphenyl)-2-(4-pyrrolidin-1-ylpiperidin-1-yl)ethyl]cyclohexanol dihydrochloride] it is 67.5%. `N[C@H]1CCCN(CC(c2cccc(OC(F)(F)F)c2)C2(O)CCCCC2)C1` (stereo partly drawn) [Example 190, 1-{2-[(3S)-3-aminopiperidin-1-yl]-1-[3-(trifluoromethoxy)phenyl]ethyl}cyclohexanol dihydrochloride] had an inhibition at 1 µM of 49.9%.

Molecule `CN[C@H]1CCN(CC(c2cccc(C(F)(F)F)c2)C2(O)CCCCC2)C1` (stereo partly drawn) [Example 220, 1-{2-[(3S)-3-(methylamino)pyrrolidin-1-yl]-1-[3-(trifluoromethyl)phenyl]ethyl}cyclohexanol dihydrochloride] displayed an inhibition at 1 µM of 27.3%. Molecule `COc1cc(C(CN2CCC(N(C)C)CC2)C2(O)CCCCC2)ccc1OCc1ccccc1` (stereo not shown) [Example 451, 1-{1-[4-(benzyloxy)-3-methoxyphenyl]-2-[4-(dimethylamino)piperidin-1-yl]ethyl}cyclohexanol dihydrochloride] gave an inhibition at 1 µM of 79%. `CNC1CCN(CC(c2cccc(Br)c2)C2(O)CCCCC2)CC1` (stereo not shown) [Example 19, 1-{1-(3-bromophenyl)-2-[4-(methylamino)piperidin-1-yl]ethyl}cyclohexanol dihydrochloride] had an inhibition at 1 µM of 88% and an EC50 of 88 nM.

For `N[C@H]1CCCN(CC(c2ccc(OCc3ccccc3)c(Cl)c2)C2(O)CCCCC2)C1` (stereo partly drawn) [Example 196, 1-{2-[(3S)-3-aminopiperidin-1-yl]-1-[4-(benzyloxy)-3-chlorophenyl]ethyl}cyclohexanol dihydrochloride], the inhibition at 1 µM worked out at 92.2%. `CN(C)[C@@H]1CCN(CC(c2cccc(Cl)c2)C2(O)CCCCC2)C1` (stereo partly drawn) [Example 202, 1-{1-(3-chlorophenyl)-2-[(3R)-3-(dimethylamino)pyrrolidin-1-yl]ethyl}cyclohexanol dihydrochloride] showed an inhibition at 1 µM of 74.3%. Turning to `COC1CCN(CC(c2ccc(OCc3ccccc3)c(Cl)c2)C2(O)CCCCC2)CC1` (stereo not shown) [Example 339, 1-[1-[4-(benzyloxy)-3-chlorophenyl]-2-(4-methoxypiperidin-1-yl)ethyl]cyclohexanol hydrochloride], the inhibition at 30 µM (MDCK-Net6, 30 μM test compound (stated in cell)) was found to be 94%. Molecule `OC1(C(CN2CCC(N3CCCC3)CC2)c2cccc(Cl)c2)CCCCC1` (stereo not shown) [Example 3, 1-[1-(3-chlorophenyl)-2-(4-pyrrolidin-1-ylpiperidin-1-yl)ethyl]cyclohexanol dihydrochloride] gave an inhibition at 1 µM of 100% and an EC50 of 53 nM. Molecule `CN[C@H]1CCCN(CC(c2ccc(OCc3ccccc3)c(Cl)c2)C2(O)CCCCC2)C1` (stereo partly drawn) [Example 195, 1-{1-[4-(benzyloxy)-3-chlorophenyl]-2-[(3S)-3-(methylamino)piperidin-1-yl]ethyl}cyclohexanol dihydrochloride] returned an inhibition at 1 µM of 92%. In turn, `CNC1CCN(CC(c2cccc(Cl)c2)C2CCCC2)CC1` (stereo not shown) [Example 228, 1-[2-(3-chlorophenyl)-2-cyclopentylethyl]-N-methylpiperidin-4-amine dihydrochloride] had an inhibition at 1 µM of 84.2%. On to `NC1CCN(CC(c2cccc3ccccc23)C2(O)CCCCC2)CC1` (stereo not shown) [Example 54, 1-[2-(4-aminopiperidin-1-yl)-1-(1-naphthyl)ethyl]cyclohexanol dihydrochloride], for which testing at 1 µM gave an inhibition of 39%. `CN(C)C1CCN(CC(c2ccc(OCc3ccccc3)c(Cl)c2)C2(O)CCCCC2)CC1` (stereo not shown) [Example 429, 1-{1-[4-(benzyloxy)-3-chlorophenyl]-2-[4-(dimethylamino)piperidin-1-yl]ethyl}cyclohexanol]: 1 µM produced 96% inhibition and it took 180 nM to reach a half-maximal effect (EC50). `COc1ccc2cc([C@H](CN3CCC(N4CCCCC4)CC3)C3(O)CCCCC3)ccc2c1` (single isomer, unassigned) [Example 354, dihydrochloride] registered an inhibition at 1 µM of 82% and an EC50 of 400 nM. The like results for `CNC1CCN(C[C@H](c2cccc(OC(F)(F)F)c2)C2(O)CCCCC2)CC1` [Example 359, 1-{(1S)-2-[4-(methylamino)piperidin-1-yl]-1-[3-(trifluoromethoxy)phenyl]ethyl}cyclohexanol dihydrochloride] were, in that order, 86% and 290 nM. In the case of `CN(C)[C@@H]1CCN(CC(c2cccc3ccccc23)C2(O)CCCCC2)C1` (stereo partly drawn) [Example 378, 1-[2-[(3R)-3-(dimethylamino)pyrrolidin-1-yl]-1-(1-naphthyl)ethyl]cyclohexanol dihydrochloride], the inhibition at 1 µM came to 28%.

`CN(C)C1CCN(CC(c2cccc(Cl)c2)C2CCCCCC2)CC1` (stereo not shown) [Example 237, 1-[2-(3-chlorophenyl)-2-cycloheptylethyl]-N,N-dimethylpiperidin-4-amine dihydrochloride] displayed an inhibition at 1 µM of 81.9%. On the same count and under the same terms, the figure for `CN[C@@H]1CCN(CC(c2cccc3ccccc23)C2(O)CCCCC2)C1` (stereo partly drawn) [Example 379, 1-[2-[(3R)-3-(methylamino)pyrrolidin-1-yl]-1-(1-naphthyl)ethyl]cyclohexanol dihydrochloride] is 19%. In turn, `OC1(C(CN2CCC(N3CCCCC3)CC2)c2cccc(C(F)(F)F)c2)CCCCC1` (stereo not shown) [Example 20, 1-{2-(1,4′-bipiperidin-1′-yl)-1-[3-(trifluoromethyl)phenyl]ethyl}cyclohexanol dihydrochloride] returned an inhibition at 1 µM of 88% and an EC50 of 260 nM.

In the case of `CN(C)[C@H]1CCN(CC(c2cccc(OC(F)(F)F)c2)C2(O)CCCCC2)C1` (stereo partly drawn) [Example 217, 1-{2-[(3S)-3-(dimethylamino)pyrrolidin-1-yl]-1-[3-(trifluoromethoxy)phenyl]ethyl}cyclohexanol dihydrochloride], the inhibition at 10 µM (MDCK-Net6, 10 μM test compound (stated in cell)) was 84.2%.
